# Measurements as given in ChEMBL document CHEMBL3272157, “Cephalosporin derivatives with 2- and 4-pyridone groups at carbon-3” (1979).
# Activity calls are given as the source filed them. The calls are words filed in the database; no cut-off is given here.
# Legend:
# [1] = system: Staphylococcus aureus; test: In vitro antibacterial activity against Staphylococcus aureus assessed as growth inhibition after 17 hrs by serial two-fold dilution technique; assay type: functional
# [2] = system: Staphylococcus aureus; test: In vitro antibacterial activity against benzylpenicillin-resistant Staphylococcus aureus assessed as growth inhibition after 17 hrs by serial two-fold dilution technique; assay type: functional
# [3] = system: Staphylococcus epidermidis; test: In vitro antibacterial activity against benzylpenicillin-resistant Staphylococcus epidermidis assessed as growth inhibition after 17 hrs by serial two-fold dilution technique; assay type: functional
# [4] = system: Streptococcus pasteurianus; test: In vitro antibacterial activity against Streptococcus pasteurianus assessed as growth inhibition after 17 hrs by serial two-fold dilution technique; assay type: functional
# [5] = system: Streptococcus pyogenes; test: In vitro antibacterial activity against Streptococcus pyogenes assessed as growth inhibition after 17 hrs by serial two-fold dilution technique; assay type: functional
# [6] = system: Escherichia coli; test: In vitro antibacterial activity against Escherichia coli assessed as growth inhibition after 17 hrs by serial two-fold dilution technique; assay type: functional
# [7] = system: Klebsiella pneumoniae; test: In vitro antibacterial activity against Klebsiella pneumoniae assessed as growth inhibition after 17 hrs by serial two-fold dilution technique; assay type: functional
# [8] = system: Proteus mirabilis; test: In vitro antibacterial activity against Proteus mirabilis assessed as growth inhibition after 17 hrs by serial two-fold dilution technique; assay type: functional
# [9] = system: Salmonella; test: In vitro antibacterial activity against Salmonella schottmuelleri assessed as growth inhibition after 17 hrs by serial two-fold dilution technique; assay type: functional
# [10] = system: Klebsiella aerogenes; test: In vitro antibacterial activity against cephalosporins-resistant Enterobacter aerogenes assessed as growth inhibition after 17 hrs by serial two-fold dilution technique; assay type: functional, organism-based
# [11] = system: Enterobacter cloacae; test: In vitro antibacterial activity against cephalosporins-resistant Enterobacter cloacae assessed as growth inhibition after 17 hrs by serial two-fold dilution technique; assay type: functional, organism-based
# [12] = system: Proteus vulgaris; test: In vitro antibacterial activity against cephalosporins-resistant Proteus vulgaris assessed as growth inhibition after 17 hrs by serial two-fold dilution technique; assay type: functional, organism-based
# [13] = system: Providencia stuartii; test: In vitro antibacterial activity against cephalosporins-resistant Providencia stuartii assessed as growth inhibition after 17 hrs by serial two-fold dilution technique; assay type: functional, organism-based
# [14] = system: Pseudomonas aeruginosa; test: In vitro antibacterial activity against cephalosporins-resistant Pseudomonas aeruginosa assessed as growth inhibition after 17 hrs by serial two-fold dilution technique; assay type: functional, organism-based
# [15] = system: Serratia marcescens; test: In vitro antibacterial activity against cephalosporins-resistant Serratia marcescens assessed as growth inhibition after 17 hrs by serial two-fold dilution technique; assay type: functional, organism-based
# [16] = system: Streptococcus pyogenes; test: In vivo antibacterial activity against Streptococcus pyogenes infected in po dosed albino CD-1 mouse assessed as protection against bacterial infection by measuring host survival administered at 1 hr and 4 hrs after infection; assay type: functional
# [17] = system: Streptococcus pyogenes; test: In vivo antibacterial activity against Streptococcus pyogenes infected in sc dosed albino CD-1 mouse assessed as protection against bacterial infection by measuring host survival administered at 1 hr and 4 hrs after infection; assay type: functional
# [18] = system: Streptococcus pasteurianus; test: In vivo antibacterial activity against Streptococcus pasteurianus infected in sc dosed albino CD-1 mouse assessed as protection against bacterial infection by measuring host survival administered at 1 hr and 4 hrs after infection; assay type: functional
# [19] = system: Salmonella; test: In vivo antibacterial activity against Salmonella schottmuelleri infected in sc dosed albino CD-1 mouse assessed as protection against bacterial infection by measuring host survival administered at 1 hr and 4 hrs after infection; assay type: functional
# [20] = system: Streptococcus pneumoniae; test: In vitro antibacterial activity against Streptococcus pneumoniae assessed as growth inhibition after 17 hrs by serial two-fold dilution technique; assay type: functional
# [21] = system: Escherichia coli; test: In vivo antibacterial activity against Escherichia coli infected in sc dosed albino CD-1 mouse assessed as protection against bacterial infection by measuring host survival administered at 1 hr and 4 hrs after infection; assay type: functional
Compound,MIC [1],MIC [2],MIC [3],MIC [4],MIC [5],MIC [6],MIC [7],MIC [8],MIC [9],growth inhibition (GI) [10],growth inhibition (GI) [11],growth inhibition (GI) [12],growth inhibition (GI) [13],growth inhibition (GI) [14],growth inhibition (GI) [15],ED50 [16],ED50 [17],ED50 [19],MIC [20],ED50 [21],other results
N[C@@H](C(=O)N[C@@H]1C(=O)N2C(C(=O)O)=C(Cn3ccccc3=O)CS[C@H]12)c1ccccc1,1.6 µg/mL,6.2 µg/mL,6.2 µg/mL,0.2 µg/mL,0.8 µg/mL,25 µg/mL,6.2 µg/mL,> 100 µg/mL,12.5 µg/mL,inactive,inactive,inactive,inactive,inactive,inactive,> 8 mg/kg,> 0.5 mg/kg,10 mg/kg,50 µg/mL,8.4 mg/kg,ED50 [18]: 14 mg/kg
N[C@@H](C(=O)N[C@@H]1C(=O)N2C(C(=O)O)=C(Cn3ccc(=O)cc3)CS[C@H]12)c1ccccc1,3.1 µg/mL,50 µg/mL,25 µg/mL,0.4 µg/mL,1.6 µg/mL,12.5 µg/mL,12.5 µg/mL,50 µg/mL,12.5 µg/mL,inactive,inactive,inactive,inactive,inactive,inactive,> 8 mg/kg,> 0.5 mg/kg,5 mg/kg,100 µg/mL,4.6 mg/kg,
CC1=C(C(=O)O)N2C(=O)[C@@H](NC(=O)[C@H](N)c3ccccc3)[C@H]2SC1 [CEPHALEXIN ANHYDROUS],1.6 µg/mL,6.2 µg/mL,12.5 µg/mL,1.6 µg/mL,0.8 µg/mL,6.2 µg/mL,3.1 µg/mL,25 µg/mL,6.2 µg/mL,,,,,,,1.2 mg/kg,3.4 mg/kg,8.2 mg/kg,> 100 µg/mL,5.6 mg/kg,ED50 [18]: 38.7 mg/kg
